target: T1, human ACC2 (Homo sapiens, UniProt O00763); test: ACC2 assay, spectrophotometric 384 well assay (NADH-linked, coupled lactate dehydrogenase/pyruvate kinase); type: biochemical; settings: ACC2 assay, hACC2 construct lacking 128 N-terminal amino acids, 25° C., 340 nm; read-out: IC50
T1 construct: made in house; host or cells: insect cells (baculoviral expression system)
Method in brief: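 ADP output tracked via pyruvate kinase/lactate dehydrogenase NADH oxidation, slope at 340 nm over 15 min, 25° C, with 500 μM ATP and 200 μM each acetyl-CoA and NADH. Enzyme: insect-cell-expressed human ACC2, N-terminal 128 residues deleted; pH 7.5 Tris with citrate, KHCO3. IC50 from four-parameter regression versus vehicle and no-acetyl-CoA controls.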

T1 sequence (O00763 129-2458 limits assumed): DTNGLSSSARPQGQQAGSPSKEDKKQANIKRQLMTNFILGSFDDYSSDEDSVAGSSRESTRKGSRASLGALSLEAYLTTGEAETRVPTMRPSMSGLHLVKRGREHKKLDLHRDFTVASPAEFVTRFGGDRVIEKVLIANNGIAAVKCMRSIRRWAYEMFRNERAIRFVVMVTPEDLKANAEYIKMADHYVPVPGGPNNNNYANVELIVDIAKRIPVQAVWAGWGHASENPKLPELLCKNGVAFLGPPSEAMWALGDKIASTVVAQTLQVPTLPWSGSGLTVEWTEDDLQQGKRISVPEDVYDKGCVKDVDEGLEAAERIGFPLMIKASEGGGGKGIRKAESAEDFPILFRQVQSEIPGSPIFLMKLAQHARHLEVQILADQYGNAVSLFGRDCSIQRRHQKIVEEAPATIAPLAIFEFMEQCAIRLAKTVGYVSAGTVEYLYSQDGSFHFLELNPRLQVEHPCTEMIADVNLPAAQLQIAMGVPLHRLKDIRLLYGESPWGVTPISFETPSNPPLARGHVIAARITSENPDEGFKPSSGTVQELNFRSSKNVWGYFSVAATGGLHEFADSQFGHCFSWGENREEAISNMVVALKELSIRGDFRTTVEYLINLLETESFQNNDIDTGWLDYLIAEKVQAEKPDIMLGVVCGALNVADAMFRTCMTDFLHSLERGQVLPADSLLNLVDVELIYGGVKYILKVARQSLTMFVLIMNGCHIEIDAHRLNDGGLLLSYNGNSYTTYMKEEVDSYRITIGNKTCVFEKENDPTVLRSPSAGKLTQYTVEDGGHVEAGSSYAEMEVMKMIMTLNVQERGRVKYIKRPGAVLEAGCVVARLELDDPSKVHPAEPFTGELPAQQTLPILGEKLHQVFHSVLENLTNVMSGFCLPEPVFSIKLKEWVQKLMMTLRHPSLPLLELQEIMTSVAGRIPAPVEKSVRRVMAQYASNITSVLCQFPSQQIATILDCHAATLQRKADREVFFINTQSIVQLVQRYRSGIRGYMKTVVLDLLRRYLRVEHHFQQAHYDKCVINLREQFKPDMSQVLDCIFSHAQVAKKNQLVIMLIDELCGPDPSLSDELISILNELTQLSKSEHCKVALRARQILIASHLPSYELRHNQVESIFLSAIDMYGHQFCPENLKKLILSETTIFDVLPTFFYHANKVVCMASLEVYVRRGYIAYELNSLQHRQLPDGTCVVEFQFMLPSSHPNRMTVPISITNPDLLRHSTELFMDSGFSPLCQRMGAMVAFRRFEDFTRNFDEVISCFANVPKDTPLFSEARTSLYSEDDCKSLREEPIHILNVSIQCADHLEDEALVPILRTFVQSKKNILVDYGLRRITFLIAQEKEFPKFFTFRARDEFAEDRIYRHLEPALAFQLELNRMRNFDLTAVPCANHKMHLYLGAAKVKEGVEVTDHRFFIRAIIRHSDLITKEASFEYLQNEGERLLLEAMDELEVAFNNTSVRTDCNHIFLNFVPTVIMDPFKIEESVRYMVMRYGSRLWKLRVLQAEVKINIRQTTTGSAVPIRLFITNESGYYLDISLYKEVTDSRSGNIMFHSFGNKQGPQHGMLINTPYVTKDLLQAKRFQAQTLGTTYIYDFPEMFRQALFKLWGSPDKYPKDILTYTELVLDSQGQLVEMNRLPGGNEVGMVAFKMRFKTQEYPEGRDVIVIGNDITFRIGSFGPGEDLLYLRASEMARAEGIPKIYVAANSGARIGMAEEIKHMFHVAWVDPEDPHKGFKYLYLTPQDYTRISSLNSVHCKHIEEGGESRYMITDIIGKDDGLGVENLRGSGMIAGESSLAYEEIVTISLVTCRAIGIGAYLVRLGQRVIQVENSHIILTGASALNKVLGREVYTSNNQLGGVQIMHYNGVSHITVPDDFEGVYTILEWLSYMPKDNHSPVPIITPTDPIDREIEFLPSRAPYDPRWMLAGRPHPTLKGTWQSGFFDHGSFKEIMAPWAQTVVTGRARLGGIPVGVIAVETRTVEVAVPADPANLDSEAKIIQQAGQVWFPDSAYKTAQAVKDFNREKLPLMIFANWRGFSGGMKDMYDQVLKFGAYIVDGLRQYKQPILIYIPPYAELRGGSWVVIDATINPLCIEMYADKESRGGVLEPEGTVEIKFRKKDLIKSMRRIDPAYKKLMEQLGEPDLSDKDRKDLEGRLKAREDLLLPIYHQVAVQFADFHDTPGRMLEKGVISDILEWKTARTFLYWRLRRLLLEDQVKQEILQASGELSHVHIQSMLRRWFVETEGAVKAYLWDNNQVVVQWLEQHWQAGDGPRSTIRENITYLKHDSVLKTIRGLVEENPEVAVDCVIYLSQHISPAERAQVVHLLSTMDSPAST

Row | SMILES | IC50 [µM]
1 | CC(=O)N[C@@H](C)c1ccc(C2CCN(c3ncc(C(=O)N4Cc5cnn(C)c5C4)cn3)CC2)cc1 [Example 18.28] | 16.9
2 | CC(=O)N[C@@H](C)c1ccc(C2CCN(c3ncc(C(=O)NCc4cocn4)cn3)CC2)cc1 [Example 18.29] | 6.5
3 | CC(=O)N[C@@H](C)c1ccc(C2CCN(c3ncc(C(=O)NC4CC4(F)F)cn3)CC2)cc1 (some centres unmarked) [Example 18.30] | 5.2
4 | CC(=O)N[C@@H](C)c1ccc(C2CCN(c3ncc(C(=O)N(C)Cc4cccnc4)cn3)CC2)cc1 [Example 18.31] | 9.3
5 | CC(=O)N[C@@H](C)c1ccc(C2CCN(c3ncc(C(=O)NCc4ccoc4)cn3)CC2)cc1 [Example 18.32] | 5.3
6 | CC(=O)N[C@@H](C)c1ccc(C2CCN(c3ncc(C(=O)Nc4cccc5c4OCO5)cn3)CC2)cc1 [Example 18.33] | 1.5
7 | CC(=O)N[C@@H](C)c1ccc(C2CCN(c3ncc(C(=O)NCc4ncccn4)cn3)CC2)cc1 [Example 18.34] | 3.5
8 | CC(=O)N[C@@H](C)c1ccc(C2CCN(c3ncc(C(=O)N[C@H]4CCOC4)cn3)CC2)cc1 [Example 18.35] | 7.3
9 | CC(=O)N[C@@H](C)c1ccc(C2CCN(c3ncc(C(=O)N4[C@@H]5CC[C@H]4C[C@@H](O)C5)cn3)CC2)cc1 [Example 18.36] | 13.2
10 | CC(=O)N[C@@H](C)c1ccc(C2CCN(c3ncc(C(=O)N(C)Cc4ccccn4)cn3)CC2)cc1 [Example 18.37] | 6.4
11 | CC(=O)N[C@@H](C)c1ccc(C2CCN(c3ncc(C(=O)N4Cc5cccnc5C4)cn3)CC2)cc1 [Example 18.38] | 3.1
12 | CC(=O)N[C@@H](C)c1ccc(C2CCN(c3ncc(C(=O)NC4COC4)cn3)CC2)cc1 [Example 18.39] | 15.2
13 | CC(=O)N[C@@H](C)c1ccc(C2CCN(c3ncc(C(=O)N4CCc5cnccc54)cn3)CC2)cc1 [Example 18.40] | 6.6
14 | CC(=O)N[C@@H](C)c1ccc(C2CCN(c3ncc(C(=O)NCC4CCCCO4)cn3)CC2)cc1 (some centres unmarked) [Example 18.41] | 21.4
15 | CC(=O)N[C@@H](C)c1ccc(C2CCN(c3ncc(C(=O)N(C)CC#N)cn3)CC2)cc1 [Example 18.42] | 14
16 | CC(=O)N[C@@H](C)c1ccc(C2CCN(c3ncc(C(=O)N(C)CCN(C)C)cn3)CC2)cc1 [Example 18.43] | 16.8
17 | CCN1CCCC1CNC(=O)c1cnc(N2CCC(c3ccc([C@H](C)NC(C)=O)cc3)CC2)nc1 (some centres unmarked) [Example 18.44] | 18.3
18 | CC(=O)N[C@@H](C)c1ccc(C2CCN(c3ncc(C(=O)NCC(N)=O)cn3)CC2)cc1 [Example 18.45] | 17.2
19 | CC(=O)N[C@@H](C)c1ccc(C2CCN(c3ncc(C(=O)N4Cc5ccncc5C4)cn3)CC2)cc1 [Example 18.46] | 6
20 | CC(=O)N[C@@H](C)c1ccc(C2CCN(c3ncc(C(=O)NCCCO)cn3)CC2)cc1 [Example 18.47] | 29.1
21 | CC(=O)N[C@@H](C)c1ccc(C2CCN(c3ncc(C(=O)NC(C)C)cn3)CC2)cc1 [Example 18.48] | 3.6
22 | CC(=O)N[C@@H](C)c1ccc(C2CCN(c3ncc(C(=O)NC[C@H](O)CO)cn3)CC2)cc1 [Example 18.50] | 13.3
23 | CC(=O)N[C@@H](C)c1ccc(C2CCN(c3ncc(C(=O)NCCN4CCCC4)cn3)CC2)cc1 [Example 18.51] | 13.8
24 | CC(=O)N[C@@H](C)c1ccc(C2CCN(c3ncc(C(=O)N4CCN(C)CC4)cn3)CC2)cc1 [Example 18.52] | 13.6
25 | CC(=O)N[C@@H](C)c1ccc(C2CCN(c3ncc(C(=O)N4CCN(C(C)=O)CC4)cn3)CC2)cc1 [Example 18.53] | 15.1
26 | CC(=O)N[C@@H](C)c1ccc(C2CCN(c3ncc(C(=O)N4CCCC4)cn3)CC2)cc1 [Example 18.54] | 2.1
27 | COCCNC(=O)c1cnc(N2CCC(c3ccc([C@H](C)NC(C)=O)cc3)CC2)nc1 [Example 18.55] | 8.8
28 | CC(=O)N[C@@H](C)c1ccc(C2CCN(c3ncc(C(=O)NCCC4CCCN4C)cn3)CC2)cc1 (some centres unmarked) [Example 18.56] | 14.9
29 | CC(=O)N[C@@H](C)c1ccc(C2CCN(c3ncc(C(=O)NCC4CCCO4)cn3)CC2)cc1 (some centres unmarked) [Example 18.57] | 22.4
